Experimental findings from patent US5912405A, “Enhancers such as acetosyringone” (Novo Nordisk A/S, priority 1994, dated 1999) are described below.

The experiment concerns the target T1, Coprinus cinereus peroxidase (CiP) (Coprinopsis cinerea, UniProt P28314).
T1 construct: made in house
T1 sequence (P28314 21-363): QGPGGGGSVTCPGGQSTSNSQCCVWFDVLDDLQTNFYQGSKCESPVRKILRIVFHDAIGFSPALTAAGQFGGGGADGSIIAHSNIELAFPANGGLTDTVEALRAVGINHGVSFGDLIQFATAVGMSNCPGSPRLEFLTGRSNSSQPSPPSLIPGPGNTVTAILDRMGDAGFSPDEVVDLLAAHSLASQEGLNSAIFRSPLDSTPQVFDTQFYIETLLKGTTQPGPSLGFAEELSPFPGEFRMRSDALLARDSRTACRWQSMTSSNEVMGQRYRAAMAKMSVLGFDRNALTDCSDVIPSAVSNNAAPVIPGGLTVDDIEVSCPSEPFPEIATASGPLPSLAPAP
Put plainly: Initial bleaching of Chicago Sky Blue 6B (CSB) with Coprinus cinereus peroxidase and enhancers. Conditions: 5 μM enhancer, 20 μM H2O2, 30° C. In kind it is biochemical. The method, then:
The bleaching rate of Direct Blue 1 (DB1) by purified CiP was determined using the following conditions: […]
Reagents were mixed in a thermostated cuvette at 30° C. and the bleaching was started by addition of hydrogen peroxide. The bleaching was detected spectrophotometrically at 610 nm, which is the wavelength of the absorption peak of DB1. Bleaching was followed for 1 minute, and the initial reduction in absorbance, --ΔmAbs/minute, was determined.
Bleaching tests were performed in exactly the same way as described in Example 2 except that instead of using DB1 Chigaco Sky Blue (CSB) (obtainable from Aldrich) was used, and the following enhancers were tested: […]

In the case of `CCCCOC(=O)c1cc(OC)c(O)c(OC)c1` [butylsyringate], the “Initial Bleaching of CSB with CiP” value reads like this: (pH 8.5, 0.08 mg/l CiP) 228 -ΔmAbs/minute; (pH 10.5, 0.16 mg/l CiP) 48 -ΔmAbs/minute.
On the same counts, the results for `CCOC(=O)C=Cc1cc(OC)c(O)c(OC)c1` [ethyl 3-(4-hydroxy-3,5-dimethoxyphenyl)acrylate] are 48 -ΔmAbs/minute and 48 -ΔmAbs/minute.
As to `CCOC(=O)c1cc(OC)c(O)c(OC)c1` [ethylsyringate], the “Initial Bleaching of CSB with CiP” value by setting is: (pH 8.5, 0.08 mg/l CiP) 240 -ΔmAbs/minute; (pH 10.5, 0.16 mg/l CiP) 52 -ΔmAbs/minute.
Take `CCCCCCOC(=O)c1cc(OC)c(O)c(OC)c1` [hexylsyringate]: the “Initial Bleaching of CSB with CiP” value runs as follows: (pH 8.5, 0.08 mg/l CiP) 276 -ΔmAbs/minute; (pH 10.5, 0.16 mg/l CiP) 36 -ΔmAbs/minute.
`CCCCCCCCOC(=O)c1cc(OC)c(O)c(OC)c1` [octylsyringate]: the “Initial Bleaching of CSB with CiP” value is, setting by setting: (pH 8.5, 0.08 mg/l CiP) 192 -ΔmAbs/minute; (pH 10.5, 0.16 mg/l CiP) 15 -ΔmAbs/minute.
The like results for `CCCOC(=O)c1cc(OC)c(O)c(OC)c1` [propylsyringate] were, in that order, 228 -ΔmAbs/minute and 60 -ΔmAbs/minute.
